Results reported in patent US12208091B2, “Compounds for treatment of eye diseases associated with excessive vascularisation” (Active Biotech AB, priority 2019, dated 2025).

Columns and labels:
[1] = test system: Human retinal microvascular endothelial cells (HRMECs); assay: Tube formation assay, combination with aflibercept (contemplated); format: cell-based; conditions: 0.01 and 0.1 μM combined with Aflibercept (30 nM)
Source text: Microglia, especially activated microglia play important roles in angiogenesis and maintenance of vascular function haemostasis in the retinal microvasculature (Ding et al 2018). It is contemplated that a co-culture of human retinal microvasculature endothelial cells (HRMEC's) and human microglia from brain can be used to assess the effects of a compound of the disclosure, such as laquinimod, tasquinimod, ABR-215174 or ABR-215691, on neovascularization. A method such as the one outlined below may be used.
This study may be carried out substantially as outlined in Example 3.
Tube formation assay is performed using 24-well plate wells coated with Matrigel or in 96-wells as described Ding et al. 2018 (Ding et al. BMC Ophthalmology (2018) 18:249): A 96-well plate is coated with 50 μL/well Matrigel at 37° C. for 30 min. After co-culturing with microglia for 24 h, HRMECs are seeded on the Matrigel at 1.5×10^4 cells/well in 100 μL medium. After a period of time, for example 4 h, tube formation is observed and photographed with a microscope (Leica Microsystems). Images are analysed using the Angiotool plugin (Zudaire et al., 2011, PLoS one, 6, 11, e27385) for ImageJ (NIH public domain). Total tube area, tube length, density, lacunarity, and branching index (number of junctions and endpoints) are quantified.

[2] = test system: Human retinal microvascular endothelial cells (HRMECs); assay: LPS-activated microglia-induced HRMEC tube formation (co-culture); format: cell-based
Experimental: The following experimental groups were included in the study: • Group 1: […] Sulforaphane (10 μM, positive control, anti-angiogenic effects) • Group 3: Aflibercept (“Eylea” 40 μg/ml, positive control, partial anti-angiogenic effects) • Group 4: […] Human retinal microvascular endothelial cells (HRMECs) were purchased from Neuromics (Cat #HEC09, Lot #2872) and cultured according to manufacturer's instructions in Endo-Growth media (Cat #EKG001, Lot #EKG0011902269) supplemented with Endothelial Growth Factor (Cat #EKG001, Lot #EGK00125) on AlphaBiocoat coated T25 flasks at 37° C. 5% CO2. […] Human microglia were seeded onto PLL coated cell culture inserts (Sarstedt, Cat #83.3932.040) at 103 000 cells/cm^2. […] The method for co-cultures of microglia and HRMECs was modified from protocol described by Ding et al. 2018 (Ding X, Gu R, Zhang M, Ren H, Shu Q, Xu G, Wu H. Microglia enhanced the angiogenesis, migration and proliferation of co-cultured RMECs. […] PMID: 30223824; PMCID: PMC6142340) and Ji Cho et al. 2019 (Ji Cho M, Yoon […], Park J, Lee J, Park J G, Cho Y L, Hun Kim J, Jang H, Park Y J, Lee S H, Min J K. Oxidative stress-mediated TXNIP loss causes RPE dysfunction. […] PMID: 31615975; PMCID: PMC6802648). Microglia was activated with LPS (100 ng/ml) in microglia complete growth media without FBS with simultaneous treatment of freshly prepared study compounds, Eylea and vehicle for 24 hours. HRMECs were incubated in basal Endo-Growth media for 24 hours before co-culturing. […] Media in microglia inserts containing LPS was replaced to corresponding freshly prepared study compounds, aflibercept and sulforaphane in basal Endo-Growth media. […] 5% CO2, stained with calcein-AM (5 μM) for 30 min and imaged using a fluorescence microscope (Leica Thunder 3D Tissue Imager, Leica Microsystems). Images were analyzed using the AngioTool software (Zudaire E, Gambardella L, Kurcz […] Computational Tool for Quantitative Analysis of Vascular Networks. PLOS ONE 6(11): e27385. https://doi.org/10.1371/journal.pone.0027385) for ImageJ (NIH public domain). Total tube area, tube length, density, lacunarity, and branching index (number of junctions and endpoints) were quantified. Images were analyzed using AngioTool software (NIH, Bethesda, MD; available in the public domain) for the following readouts: average vessels length, total vessels length, vessel area, vessels percentage area, total number of junctions, density of junctions, total number of endpoints, and mean lacunarity. […] Raw data for each of the readouts was plotted and analyzed by ordinary one-way ANOVA with Dunnett's multiple comparisons post-hoc test. […] Effect size data were analyzed by non-parametric Kruskal-Wallis test, with Dunn's multiple comparisons post-hoc test.

[3] = test system: choroidal neovascularisation; assay: Laser-induced choroidal neovascularisation rat model, fluorescein angiography leakage score; format: in vivo, Brown Norway pigmented rats; parameters: key to Mean score of fluorescein leakage: 0 = no leakage, 1 = slight, 2 = moderate, 3 = strongly stained; conditions: Per os 0.5 mg/kg 1×/day
Experimental: Forty-eight (48) Brown Norway pigmented rats were divided into six (6) groups of eight (8) animals. Choroidal neovascularization was induced using a 532 nm argon laser photocoagulator (six (6) 75 μm-sized spots at 150 mW for 0.1 sec duration) in the right eyes on Day 0. The test item was administered three times a day by instillation or twice a day by oral administration from Day 0 (DO) just after ChNV induction to Day 21 (last day of the study). Control item (vehicle) was instilled three times a day and the reference item (Dexamethasone in olive oil) was administered by daily oral administration from the Day 0 just after induction of neovascularization to Day 21. Fundus neovessels were evaluated in the right eyes on Days 14 and 21 using Heidelberg's Retinal Angiograph (HRA). Lesion size was determined on choroid flatmounts labelled with Isolectin-B4 at the end of the in vivo period.
On Day 0, animals were anesthetized by an intramuscular injection of a mix of xylazine (5 mg/kg) and ketamine (25 mg/kg). Pupils from the right eyes were dilated by instillation of one drop of 0.5% tropicamide. Then, six (6) choroidal burns (75 μm spot size) were done through a slit-lamp, with a contact lens, around the optic disc, between the main vessel branches using an argon laser photocoagulator (532 nm; 150 mW; 0.1 sec duration). Production of a bubble at the time of laser treatment confirmed the rupture of Bruch's membrane.
Test, control, or reference items were administered topically by instillation (10 μL each) or by oral route (1 mL/kg) from Day 0 (just after the induction) to Day 21 (end of the study). Test and control items were administered three times a day (for instillation) and two times a day (for oral administration). Reference item was administered once a day by oral route.
Fluorescein angiography was performed on Days 14 and 21 using an HRA (Heidelberg's Retinal Angiograph). After anaesthesia (same mix used for ChNV induction) and pupillary dilation, 250 μL/100 g (body weight) of a 10% sodium fluorescein was injected subcutaneously using a 26-G insulin syringe, and fluorescein photos were recorded 10 minutes after dye injection.
The leakage of fluorescein on the angiograms were evaluated by two examiners in a masked fashion and graded as follows: • Score 0, no leakage; • Score 1, slightly stained; • Score 2, moderately stained; • Score 3, strongly stained.
Statistical analysis, using Mann-Whitney U test or appropriate statistical model, were performed on the scoring of lesions visualized by HRA from each animal and on the scoring of the flat mounted preparations.
The grading of fluorescein angiographies (FA) was based on the fluorescence intensity for each lesion. For each treatment group, results were expressed as the group mean score per time-point. Table 1 summarises the evaluation of FA recorded at 10 min on Days 14 and 21 (n=8 animals per group, right eyes). A statistical analysis was performed on the median of the individual intensity scores, using a Kruskall-Wallis test followed by a Mann & Whitney U multiple comparison test, which was used to compare each test, control or reference group.

[4] = Animal body weight in the ChNV rat study; format: in vivo, Brown Norway pigmented rats; conditions: during the study, oral 0.5 mg/kg 1×/day
Experimental: The body weight of all animals was recorded before the start of the study, then once every week.
Animal body weights were recorded before induction and treatment (baseline) and then once a week. Animal body weights were within the normal range at the baseline: 166-202 g (min−max, n=48). On Day 21, no significant difference between test and control items was observed. […] This loss is an expected adverse effect of orally dosed corticosteroid.

[5] = test system: bFGF induced corneal vascularisation; assay: bFGF induced corneal vascularisation (pellet in corneal pocket), area of neovascularisation; format: in vivo, C57BL/6 mice
[6] = test system: metastatic chemo naïve prostate cancer (mCRPC); conditions: randomized placebo controlled Phase 2 and 3 studies; cited from earlier work
[7] = test system: VEGF induced corneal vascularisation; assay: VEGF induced corneal vascularisation (pellet in corneal pocket), area of neovascularisation; format: in vivo, C57BL/6 mice; parameters: Area of vasc.: unit not given beside the values
Experimental: The area of the neovascularisation can be measured using the formula: Area=0.2·VL·CH·π wherein vessel length (VL) and continuous circumferential zone (in clock hours=CH) are measured as defined in FIG. 1. Treatment with Laquinimod of VEGF Induced Corneal Vascularisation
Hydron pellets for induction of vascularisation were prepared from stimulant (VEGF) and binding agent (sucralfate).
53 CR female C57BL/6 mice aged 6 to 8 weeks were prepared for surgery by anesthetising with 90 mg/kg of pentobarbital, ip. Corneal vascularisation was induced by placement of a pellet in a corneal pocket cut in one eye. Signs for ocular irritation or infection were carefully monitored.
[…] Vascularisation was measured on day 8.

[8] = group 2: 5 mg/kg po qd ×5, measured day 6
[9] = group 2: 5 mg/kg ip qd ×7, measured day 8

Q: Which results are given for Cn1c(=O)c(C(=O)Nc2ccccc2)c(O)c2c(Cl)cccc21 [ABR-215174, 5-chloro-4-hydroxy-1-methyl-2-oxo-1,2-dihydroquinoline-3-carboxylic acid phenylamide]?
A: effect on tube formation of combination compared to each compound used as monotherapy [1]: clear additive effect; Normalized effect size on average vessel length ([2]; 0.1 μM, normalised to vehicle 0%, sulforaphane 100%): 88.2%

Q: Which results are given for C[C@@H]1C[C@H]2[C@@H]3CCC4=CC(=O)C=C[C@]4(C)[C@@]3(F)[C@@H](O)C[C@]2(C)[C@@]1(O)C(=O)CO [Dexamethasone, reference compound]?
A: % of reduction vs respective vehicle ([3]; Day 14): 71%; Mean score of fluorescein leakage ([3]; Day 14): 0.7; % of reduction vs respective vehicle ([3]; Day 21): 73%; Mean score of fluorescein leakage ([3]; Day 21): 0.8; body weight loss [4]: 21%

Q: Which “Inhibition of corneal vascularisation induced by bFGF” value ([5]; 40 mg/kg) does the source give for CCN(CC)CCNC(=O)c1c(C)[nH]c(/C=C2\C(=O)Nc3ccc(F)cc32)c1C [Sutent, reference compound] here?
A: The value was 80%.

Q: What about the Area of vasc. [5, 8] of the same molecule?
A: Its Area of vasc. is 0.72 ± 0.08.

Q: And the “Area percent of positive control” value [5, 8]?
A: Its value is 20%.

Q: Which “Normalized effect size on average vessel length” value ([2]; 10 μM, positive control, set to 100% by normalisation (vehicle 0%)) does the source give for C[S+]([O-])CCCCN=C=S (stereo not shown) [sulforaphane, reference compound] here?
A: The value was 100%.

Q: With COc1cccc2c1c(O)c(C(=O)N(C)c1ccc(C(F)(F)F)cc1)c(=O)n2C [tasquinimod] as the molecule, how does the “Disease progression (primary endpoint)” value [6] read?
A: Its value is “significantly delayed”.

Q: With “Avastin: Bevacizumab (Avastin) is an IgG1-based antibody which binds VEGF-A; positive control” as the molecule, how does the “Inhibition of corneal vascularisation induced by VEGF” value ([7]; 5 mg/kg (reference)) read?
A: The value was 100%.

Q: And the Area of vasc. [7, 9]?
A: Its Area of vasc. is 0.00 ± 0.00.

Q: What about the “Area percent of positive control” value [7, 9] of the same molecule?
A: Its value is 0%.

Q: Which “Normalized effect size on average vessel length” value ([2]; 40 μg/ml, normalised to vehicle 0%, sulforaphane 100%) does the source give for “Eylea: recombinant protein aflibercept (Eylea) with affinity for VEGF-A, VEGF-B, and PGF” here?
A: The value was 18%.
